Measurements as given in patent US20110020312A1, “METHODS FOR TREATMENT OF METABOLIC DISORDERS USING EPIMETABOLIC SHIFTERS, MULTIDIMENSIONAL INTRACELLULAR MOLECULES, OR ENVIRONMENTAL INFLUENCERS” (priority 2009, published 2011).

Key:
SK-MEL-28 mitochondria = assay: LC-MS/MS quantification of Q10, Q10H2 and Q9 in mitochondrial enriched samples; assay type: cell-based; conditions: for Q10 in mitochondrial enriched sample: 100 μM Q10 in the media; for increase in mitochondrial Q10 levels: 100 μM Q10
Description: To control for sample variance in total material, the levels of cholesterol was also measured to confirm that the differences were not due to sample size errors.

SkBr-3 cells = assay: Real-time PCR Apoptosis Array; assay type: cell-based, human
Description: Changes in mRNA levels were evaluated using real-time PCR quantification to assess mRNA levels in pre-selected subsets containing […] pathway specific targets.
For the interpretation of mRNA results, the genes that were altered in their mRNA transcription by a two-fold level were identified and evaluated. The level of gene transcription to produce mRNA only provides a rough estimate of potential changes in the level of the expressed protein. The skilled artisan will appreciate that each mRNA may have different rates at which it is degraded or its translation inefficiently, thus resulting in differing amounts of protein.
The assay method of RT-PCR was utilized to provide a measure of mRNA level changes to a total of 84 apoptotic pathway related proteins.

[1] = system: Pancreatic Cancer Cells (PaCa2); assay: Real-time PCR Diabetes Array; assay type: cell-based; conditions: 100 uM Q10, various times
Description: Experiments were carried out essentially as described above.

ATP Citrate Lyase (ACL) = assay: Western blot, ATP Citrate Lyase levels in normal and cancer cells; assay type: cell-based, human
Description: The whole cell pellets were resuspended one at a time in 1 mL of C7 buffer and transferred to labeled 15 mL tubes. The samples were then sonicated in the cold room on ice using 6 sonic pulses with the setting at #14. The samples were spun for a short time to 2500 g after sonication and the samples transferred to 2 ml tubes. The pH was verified of each sample (pH should be 9.0) using the foam remaining in the […] sample tubes.
After transfer each of the blots was placed in between 2 Whatman Filter papers and dried for 15-20 minutes. After drying the blots were labeled with the date, the type of samples and either blot 1 or blot 2 using a HB pencil. The molecular weight markers were outlined with the pencil and with single lines for the blue and a doublet for the colored markers. The blots were activated with methanol for 5 seconds, washed with water for 5 minutes, and TBST for 15 minutes. The blots were blocked for 1 hour with 5% blocking reagent in TBS-T at room temperature and then washed 3 times with TBS-T (1×-15′; 2×5′ each). Blot 1 was probed with the primary antibody for IDH1 (Cell Signaling #3997) in TBST with 5% BSA (at 1:1000 dilutions) and blot 2 with the rabbit polyclonal antibody for ATP Citrate Lyase in 5% BSA (Cell Signaling #4332) at 1:1000 dilution by incubation overnight at 4 deg C. with shaking. After the overnight incubation with primary antibodies, the blots were washed 3 times with TBS-T (1×-15′; 2×5′ each) and probed with the secondary antibody (antirabbit; 1:10,000 dilution) for 1 h on the orbital tilting shaker at room temperature. After 1 h of incubation with secondary antibodies, the blots were washed 3 times with TBS-T (1×-15′; 2×5′ each) and then incubated with ECF reagent for 5 mins and then each blot scanned with 5100 Fuji Laser scanner at 25 uM resolution, 16 bit, green laser, at 400V and at 500 V.
The samples were processed and run on a 4-12% Bis-Tris Novex NuPAGE gel as described above. The gels were run, transferred and stained essentially as described above.
The Isocitrate dehydrogenase blot was stripped by incubating for 30 minutes with methanol, followed by two 10 minute washes with TBS-T, then 30 minutes of incubation with stripping buffer at 50 deg C., and followed by two washes with 100 ml or more of TBS-T for 30′ each. The blot was scanned in laser scanner to check for complete stripping. The blot was activated with methanol for 5 seconds, washed with water for 5 minutes, and TBST for 15 minutes. The blot was blocked for 1 hour with 5% blocking reagent in TBS-T at room temperature and then washed 3 times with TBS-T (1×-15′; 2×5′ each). This was then probed with the rabbit polyclonal antibody for ATP Citrate Lyase in 5% BSA (Cell Signaling #4332) at 1:1000 dilution overnight at 4 deg C. with shaking. After the overnight incubation with primary antibody for ATP Citrate Lyase, the membrane was washed 3 times with TBS-T (1×-15′; 2×5′ each) and probed with the secondary antibody (antirabbit; 1:10,000 dilution) for 1 h on the orbital tilting shaker at room temperature. After 1 h of incubation with secondary antibodies, the blot was washed 3 times with TBS-T (1×-15′; 2×5′ each) and then incubated with ECF reagent for 5 minutes and then each blot scanned with 5100 Fuji Laser scanner at 25 uM resolution, 16 bit, green laser, at 400V and at 500 V.
In this experiment (western blot experiment 3), and in all of the experiments described below in this Example (i.e., western blot experiments 4 through 9), the cells were additionally treated with either 5 mM glucose (“5G”) or 22 mM glucose (“22G”). The samples derived from the cells were processed and run on a 4-12% Bis-Tris Novex NuPAGE gel as described above. The gels were run, transferred and stained essentially as described above.
The levels of IDH1, ATP citrate lyase and actin levels were determined by probing the blots with primary antibodies for IDH1, ATP citrate lyase and actin, essentially as described above.

normal fibroblast = assay: Bcl2 level after co-administration of CoQ-10 and VEGF; assay type: cell-based; conditions: co-administration with VEGF
[2] = system: HAEC, MCF-7, HepG2 and PC-3 cell lines; assay: OCR and ECAR in other normal and cancer cell lines (data not shown); assay type: cell-based; conditions: absence and/or presence of stressors (hyperglycemia, hypoxia, lactic acid)
Description: A similar comparison of OCR and ECAR values (data not shown) were determined in numerous other normal and cancer cells lines, including: HAEC (normal human aortic endothelial cells), MCF-7 (breast cancer), HepG2 (liver cancer) and highly metastatic PC-3 (prostate cancer) cell lines. […] Thus, the overall effect of CoQ10 in the treatment of cancer, including cell death, is an downstream effect of its collective influence on proteomic, genomic, metabolomic outcomes in concert with shifting of the cellular bioenergetics from glycolysis to mitochondrial OXPHOS.

[3] = rats, oral; cited from earlier work

COC1=C(OC)C(=O)C(C/C=C(\C)CC/C=C(\C)CC/C=C(\C)CC/C=C(\C)CC/C=C(\C)CC/C=C(\C)CC/C=C(\C)CC/C=C(\C)CC/C=C(\C)CCC=C(C)C)=C(C)C1=O [Q10, Coenzyme Q10]
Q10 in mitochondrial enriched sample (SK-MEL-28 mitochondria; 6 hr): 7.21 ng/Sample | increase in mitochondrial Q10 levels (SK-MEL-28 mitochondria; 19 hours): ~3 fold | Q10 in mitochondrial enriched sample (SK-MEL-28 mitochondria; 19 hr): 16.77 ng/Sample | increase in mitochondrial Q10 levels (SK-MEL-28 mitochondria; 48 hour): ~6 fold | Q10 in mitochondrial enriched sample (SK-MEL-28 mitochondria; 48 hr): 46.63 ng/Sample | form of Q10 in mitochondria (SK-MEL-28 mitochondria; exogenous Q10 added to media): maintained in the supplied oxidized form | mRNA's being affected (Apoptosis array) (SkBr-3 cells; Q10 (24 hr)): Bcl2, Bcl2L1, Bcl2L11, Birc6, Bax, Xiap, Hprt1, Apaf1, Ab11, Braf | Bcl-xl mRNA level (SkBr-3 cells; one of the highest): significant up-regulation | genes modulated by Q10 treatment (Diabetes arrays) [1]: ABCC8, ACLY, ADRB3, CCL5, CEACAM1, CEBRA, FOXG1, FOXP3, G6PD, GLP1R, GPD1, HNF4A, ICAM1, IGFBP5, INPPL1, IRS2, MAPK14, ME1, NFKB1, PARP1, PIK3C2B, PIK3CD, PPARGC1B, PRKAG2, PTPN1, PYGL, SLC2A4, SNAP25, HNF1B, TNRFSF1A, TRIB3, VAPA, VEGFA, IL4R and IL6 | ATPCL Average Normalized Intensity (ATP Citrate Lyase (ACL); HDFa, HDF-50): ~17500 | ATPCL Average Normalized Intensity (ATP Citrate Lyase (ACL); HDFa, HDF-100): ~25000 | ATP Citrate Lysase Normalized Intensity as % (ATP Citrate Lyase (ACL); HepG2, Hep5g48-50): 85% | ATP Citrate Lysase Normalized Intensity as % (ATP Citrate Lyase (ACL); HepG2, Hep5g48-100): 79% | ATP Citrate Lysase Normalized Intensity as % (ATP Citrate Lyase (ACL); HepG2, Hep22G48-50): 129% | ATP Citrate Lysase Normalized Intensity as % (ATP Citrate Lyase (ACL); HepG2, Hep22G48-100): 209% | ATPCL Average Normalized Intensity (ATP Citrate Lyase (ACL); MCF-7, MCF-50): ~7500 | ATPCL Average Normalized Intensity (ATP Citrate Lyase (ACL); MCF-7, MCF-100): ~12500 | ATP Citrate Lysase Normalized Intensity as % (ATP Citrate Lyase (ACL); PACA2, PACA5g48-50): 68% | ATP Citrate Lysase Normalized Intensity as % (ATP Citrate Lyase (ACL); PACA2, PACA5g48-100): 42% | ATP Citrate Lysase Normalized Intensity as % (ATP Citrate Lyase (ACL); PACA2, PACA22G48-50): 112% | ATP Citrate Lysase Normalized Intensity as % (ATP Citrate Lyase (ACL); PACA2, PACA22G48-100): 174% | expression of ACL enzymes (ATP Citrate Lyase (ACL); cancer cells): dose-dependent decrease | expression of ACL (ATP Citrate Lyase (ACL); normal cells): trend towards increased expression | levels of Bcl2 (normal fibroblast): no effect | OCR and ECAR values [2]: shift in OCR and ECAR values representative of values observed in a normal cells | orally-administered CoQ10 absorbed [3]: 2-3%
